Patent US12195730B2, “High-throughput screening methods to identify small molecule targets” (A-Alpha Bio, Inc., priority 2020, dated 2025)

What was measured:
[1] = system: interaction of IKZF1 with mutant CRBN; experiment: AlphaSeq assay, effect of thalidomide and analogs on mutant CRBN/IKZF1 interaction; assay type: cell-based; conditions: FIG. 7B
From the text: (§1) FIG. 7A is a schematic illustrating thalidomide, or its analogs, mediating the interaction between CRBN and IKZF1.

[2] = molecular target: T1, interaction of IKZF1 with wild-type CRBN (Homo sapiens, UniProt Q96SW2); experiment: AlphaSeq assay, effect of thalidomide and analogs on wild-type CRBN/IKZF1 interaction; assay type: cell-based; conditions: FIG. 7B
T1 construct: expressed in transfected cells; host or cells: recombinant haploid yeast cells (surface display)
From the text: as §1

[3] = molecular target: interaction between FKBP12 and the FRB domain of TOR (Homo sapiens, UniProt P42345+P62942); experiment: AlphaSeq yeast mating assay, effect of small molecule agonists on FKBP12/FRB interaction; conditions: FIG. 6B; increasing compound concentration correlates with increasing mating efficiency
Sequence of interaction between FKBP12 and the FRB domain of TOR (P62942 whole entry, the tested form may be a part): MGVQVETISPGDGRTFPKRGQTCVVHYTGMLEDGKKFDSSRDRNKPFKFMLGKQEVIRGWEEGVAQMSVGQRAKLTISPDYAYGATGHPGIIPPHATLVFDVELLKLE
Sequence of interaction between FKBP12 and the FRB domain of TOR (P42345 2012-2144 limits assumed): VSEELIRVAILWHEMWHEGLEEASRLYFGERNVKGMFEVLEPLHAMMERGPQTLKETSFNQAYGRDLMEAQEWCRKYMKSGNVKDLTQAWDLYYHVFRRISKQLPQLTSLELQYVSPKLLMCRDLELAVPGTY

T1 sequence (Q96SW2 whole entry): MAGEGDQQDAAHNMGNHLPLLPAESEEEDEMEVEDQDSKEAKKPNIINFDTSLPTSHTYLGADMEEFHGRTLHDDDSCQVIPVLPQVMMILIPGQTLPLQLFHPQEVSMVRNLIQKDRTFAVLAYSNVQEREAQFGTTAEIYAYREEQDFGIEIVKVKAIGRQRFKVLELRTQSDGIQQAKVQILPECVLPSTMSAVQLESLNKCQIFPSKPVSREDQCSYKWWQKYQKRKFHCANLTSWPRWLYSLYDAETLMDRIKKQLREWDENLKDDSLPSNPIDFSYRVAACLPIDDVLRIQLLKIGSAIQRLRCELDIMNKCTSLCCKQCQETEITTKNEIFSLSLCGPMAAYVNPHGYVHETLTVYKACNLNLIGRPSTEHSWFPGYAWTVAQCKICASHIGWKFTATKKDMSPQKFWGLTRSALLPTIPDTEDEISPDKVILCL
T1 sequence (Q13422 whole entry partner): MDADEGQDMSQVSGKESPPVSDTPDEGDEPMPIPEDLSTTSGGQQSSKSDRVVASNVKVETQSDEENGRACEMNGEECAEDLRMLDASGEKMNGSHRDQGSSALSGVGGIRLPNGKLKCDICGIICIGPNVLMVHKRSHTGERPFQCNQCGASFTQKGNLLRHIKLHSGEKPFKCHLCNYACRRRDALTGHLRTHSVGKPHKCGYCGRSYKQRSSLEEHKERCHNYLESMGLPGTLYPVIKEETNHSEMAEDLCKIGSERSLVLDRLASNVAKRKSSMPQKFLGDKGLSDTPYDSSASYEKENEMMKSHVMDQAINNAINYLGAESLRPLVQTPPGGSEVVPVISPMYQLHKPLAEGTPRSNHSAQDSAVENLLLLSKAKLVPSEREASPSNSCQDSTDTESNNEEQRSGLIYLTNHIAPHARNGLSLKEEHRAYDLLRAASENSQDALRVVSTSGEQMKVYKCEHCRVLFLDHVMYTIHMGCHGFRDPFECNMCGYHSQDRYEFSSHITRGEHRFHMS

| effect on the interaction of IKZF1 with wild-type CRBN [2] | effect on the interaction between FKBP12 and the FRB domain (mating efficiency) [3] | SMILES | effect on the interaction of IKZF1 with mutant CRBN [1] |
| --- | --- | --- | --- |
| agonistic effect | – | Nc1cccc2c1C(=O)N(C1CCC(=O)NC1=O)C2=O (stereo not drawn) [pomalidomide] | not mutant CRBN |
| – | agonistic effect | CO[C@H]1C[C@@H]2CC[C@@H](C)[C@@](O)(O2)C(=O)C(=O)N2CCCC[C@H]2C(=O)O[C@H]([C@H](C)C[C@@H]2CC[C@@H](OP(C)(C)=O)[C@H](OC)C2)CC(=O)[C@H](C)/C=C(\C)[C@@H](O)[C@@H](OC)C(=O)[C@H](C)C[C@H](C)/C=C/C=C/C=C/1C [ridaforolimus] | – |
| agonistic effect | – | O=C1CCC(N2C(=O)c3ccccc3C2=O)C(=O)N1 (stereo not drawn) [thalidomide] | not mutant CRBN |
| – | agonistic effect | CO[C@H]1C[C@@H]2CC[C@@H](C)[C@@](O)(O2)C(=O)C(=O)N2CCCC[C@H]2C(=O)O[C@H]([C@H](C)C[C@@H]2CC[C@@H](OCCO)[C@H](OC)C2)CC(=O)[C@H](C)/C=C(\C)[C@@H](O)[C@@H](OC)C(=O)[C@H](C)C[C@H](C)/C=C/C=C/C=C/1C [everolimus] | – |
